# Laboratory results from PubChem BioAssay (NCI).
#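 How tested: cells in 96-well plates exposed to compound for 48 hours at five concentrations. GI50 = concentration required for 50% inhibition of growth. TGI marks complete inhibition of growth.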
# Key:
# Assay in all cases: DTP human tumour cell line panel, 48 h
# 786-0 renal = tested on: 786-0 renal
# A498 renal = tested on: A498 renal
# A549 NSCLC = tested on: A549 NSCLC
# ACHN renal = tested on: ACHN renal
# BT-549 breast = tested on: BT-549 breast
# CAKI-1 renal = tested on: CAKI-1 renal
# CCRF-CEM leukemia = tested on: CCRF-CEM leukemia
# COLO 205 colon = tested on: COLO 205 colon
# DU-145 prostate = tested on: DU-145 prostate
# EKVX NSCLC = tested on: EKVX NSCLC
# HCC-2998 colon = tested on: HCC-2998 colon
# HCT-116 colon = tested on: HCT-116 colon
# HCT-15 colon = tested on: HCT-15 colon
# HL-60(TB) leukemia = tested on: HL-60(TB) leukemia
# HOP-92 NSCLC = tested on: HOP-92 NSCLC
# HS 578T breast = tested on: HS 578T breast
# HT29 colon = tested on: HT29 colon
# IGROV1 ovarian = tested on: IGROV1 ovarian
# K-562 leukemia = tested on: K-562 leukemia
# KM12 colon = tested on: KM12 colon
# LOX IMVI melanoma = tested on: LOX IMVI melanoma
# M14 melanoma = tested on: M14 melanoma
# MALME-3M melanoma = tested on: MALME-3M melanoma
# MCF7 breast = tested on: MCF7 breast
# MDA-MB-231 breast = tested on: MDA-MB-231 breast
# MDA-MB-435 = tested on: MDA-MB-435
# MOLT-4 leukemia = tested on: MOLT-4 leukemia
# NCI-H226 lung = tested on: NCI-H226 lung
# NCI-H23 lung = tested on: NCI-H23 lung
# NCI-H460 lung = tested on: NCI-H460 lung
# NCI-H522 lung = tested on: NCI-H522 lung
# NCI/ADR-RES ovarian = tested on: NCI/ADR-RES ovarian
# OVCAR-3 ovarian = tested on: OVCAR-3 ovarian
# OVCAR-4 ovarian = tested on: OVCAR-4 ovarian
# OVCAR-5 ovarian = tested on: OVCAR-5 ovarian
# OVCAR-8 ovarian = tested on: OVCAR-8 ovarian
# PC-3 prostate = tested on: PC-3 prostate
# RPMI-8226 leukemia = tested on: RPMI-8226 leukemia
# RXF 393 renal = tested on: RXF 393 renal
# SF-268 CNS = tested on: SF-268 CNS
# SF-295 CNS = tested on: SF-295 CNS
# SF-539 CNS = tested on: SF-539 CNS
# SK-MEL-2 melanoma = tested on: SK-MEL-2 melanoma
# SK-MEL-28 melanoma = tested on: SK-MEL-28 melanoma
# SK-MEL-5 melanoma = tested on: SK-MEL-5 melanoma
# SK-OV-3 ovarian = tested on: SK-OV-3 ovarian
# SN12C renal = tested on: SN12C renal
# SNB-19 CNS = tested on: SNB-19 CNS
# SNB-75 CNS = tested on: SNB-75 CNS
# SR leukemia = tested on: SR leukemia
# T-47D breast = tested on: T-47D breast
# TK-10 renal = tested on: TK-10 renal
# U251 CNS = tested on: U251 CNS
# UACC-257 melanoma = tested on: UACC-257 melanoma
# UACC-62 melanoma = tested on: UACC-62 melanoma
# UO-31 renal = tested on: UO-31 renal
smiles,measurement,setting,value
O=Nc1c(-c2c(O)[nH]c3cc(Br)ccc23)[nH]c2ccccc12,GI50,786-0 renal,1.22 µM
same,TGI,786-0 renal,4.4 µM
same,GI50,A498 renal,0.416 µM
same,TGI,A498 renal,1.83 µM
same,GI50,A549 NSCLC,1.06 µM
same,TGI,A549 NSCLC,4.89 µM
same,GI50,ACHN renal,0.519 µM
same,TGI,ACHN renal,1.91 µM
same,GI50,BT-549 breast,0.716 µM
same,TGI,BT-549 breast,2.79 µM
same,GI50,CAKI-1 renal,0.109 µM
same,TGI,CAKI-1 renal,1.45 µM
same,GI50,CCRF-CEM leukemia,2.53 µM
same,TGI,CCRF-CEM leukemia,> 100 µM
same,GI50,COLO 205 colon,1.35 µM
same,TGI,COLO 205 colon,2.84 µM
same,GI50,DU-145 prostate,1.23 µM
same,TGI,DU-145 prostate,2.56 µM
same,GI50,EKVX NSCLC,1.3 µM
same,TGI,EKVX NSCLC,3.22 µM
same,GI50,HCC-2998 colon,1.6 µM
same,TGI,HCC-2998 colon,3.08 µM
same,GI50,HCT-116 colon,0.883 µM
same,TGI,HCT-116 colon,2.27 µM
same,GI50,HCT-15 colon,0.963 µM
same,TGI,HCT-15 colon,3.1 µM
same,GI50,HL-60(TB) leukemia,2.75 µM
same,TGI,HL-60(TB) leukemia,> 32.3 µM
same,GI50,HOP-92 NSCLC,1.97 µM
same,TGI,HOP-92 NSCLC,7.29 µM
same,GI50,HS 578T breast,0.239 µM
same,TGI,HS 578T breast,7.14 µM
same,GI50,HT29 colon,1.67 µM
same,TGI,HT29 colon,3.44 µM
same,GI50,IGROV1 ovarian,0.14 µM
same,TGI,IGROV1 ovarian,2.1 µM
same,GI50,K-562 leukemia,1.19 µM
same,TGI,K-562 leukemia,> 100 µM
same,GI50,KM12 colon,0.471 µM
same,TGI,KM12 colon,1.94 µM
same,GI50,LOX IMVI melanoma,1.1 µM
same,TGI,LOX IMVI melanoma,2.55 µM
same,GI50,M14 melanoma,1.76 µM
same,TGI,M14 melanoma,3.48 µM
same,GI50,MALME-3M melanoma,2.35 µM
same,TGI,MALME-3M melanoma,6.44 µM
same,GI50,MCF7 breast,1.83 µM
same,TGI,MCF7 breast,7.79 µM
same,GI50,MDA-MB-231 breast,1.82 µM
same,TGI,MDA-MB-231 breast,5.31 µM
same,GI50,MDA-MB-435,1.61 µM
same,TGI,MDA-MB-435,3.01 µM
same,GI50,MOLT-4 leukemia,2.99 µM
same,TGI,MOLT-4 leukemia,> 100 µM
same,GI50,NCI-H226 lung,0.932 µM
same,TGI,NCI-H226 lung,3.49 µM
same,GI50,NCI-H23 lung,1.63 µM
same,TGI,NCI-H23 lung,4.28 µM
same,GI50,NCI-H460 lung,1.29 µM
same,TGI,NCI-H460 lung,7.57 µM
same,GI50,NCI-H522 lung,1.1 µM
same,TGI,NCI-H522 lung,4.54 µM
same,GI50,NCI/ADR-RES ovarian,1.42 µM
same,TGI,NCI/ADR-RES ovarian,4.48 µM
same,GI50,OVCAR-3 ovarian,0.648 µM
same,TGI,OVCAR-3 ovarian,2.24 µM
same,GI50,OVCAR-4 ovarian,1.23 µM
same,TGI,OVCAR-4 ovarian,5.37 µM
same,GI50,OVCAR-5 ovarian,2.25 µM
same,TGI,OVCAR-5 ovarian,4.35 µM
same,GI50,OVCAR-8 ovarian,2.32 µM
same,TGI,OVCAR-8 ovarian,> 100 µM
same,GI50,PC-3 prostate,1.2 µM
same,GI50,RPMI-8226 leukemia,2.04 µM
same,TGI,RPMI-8226 leukemia,> 22.5 µM
same,GI50,RXF 393 renal,0.858 µM
same,TGI,RXF 393 renal,3.42 µM
same,GI50,SF-268 CNS,1.52 µM
same,TGI,SF-268 CNS,3.66 µM
same,GI50,SF-295 CNS,1.34 µM
same,TGI,SF-295 CNS,5.57 µM
same,GI50,SF-539 CNS,0.734 µM
same,TGI,SF-539 CNS,2.88 µM
same,GI50,SK-MEL-2 melanoma,1.11 µM
same,TGI,SK-MEL-2 melanoma,3.41 µM
same,GI50,SK-MEL-28 melanoma,2.37 µM
same,TGI,SK-MEL-28 melanoma,4.79 µM
same,GI50,SK-MEL-5 melanoma,0.723 µM
same,TGI,SK-MEL-5 melanoma,1.99 µM
same,GI50,SK-OV-3 ovarian,0.223 µM
same,TGI,SK-OV-3 ovarian,2.94 µM
same,GI50,SN12C renal,0.785 µM
same,TGI,SN12C renal,3.86 µM
same,GI50,SNB-19 CNS,5.07 µM
same,TGI,SNB-19 CNS,16.7 µM
same,GI50,SNB-75 CNS,0.285 µM
same,TGI,SNB-75 CNS,2.96 µM
same,GI50,SR leukemia,3.26 µM
same,TGI,SR leukemia,64.2 µM
same,GI50,T-47D breast,1.98 µM
same,TGI,T-47D breast,5.48 µM
same,GI50,TK-10 renal,0.954 µM
same,TGI,TK-10 renal,5.12 µM
same,GI50,U251 CNS,1.87 µM
same,TGI,U251 CNS,8.52 µM
same,GI50,UACC-257 melanoma,2.05 µM
same,TGI,UACC-257 melanoma,3.95 µM
same,GI50,UACC-62 melanoma,1.29 µM
same,TGI,UACC-62 melanoma,2.95 µM
same,GI50,UO-31 renal,0.334 µM
same,TGI,UO-31 renal,2.03 µM
